Measurements taken from PMC7395048 (Archives of Toxicology, 2020).
“Also recorded” adds a separate entry of the source. Marks after values point to notes of the source that are not given here.

Tests used:
hiPSC-CM = hiPSC-CM MEA assay (FPDc, extracellular field potential); conditions: for cytotoxicity at the test concentrations: up to 30 µM, data not shown
Method: Briefly, each well of the MEA chips was precoated with 50 μg/ml fibronectin for 3 h in the incubator at 37 °C with 5% CO2. The fibronectin coating solution was aspirated before seeding. Cells were thawed in the incubator at 37 °C for exactly 4 min and carefully transferred to a 50-ml tube. The original vial was rinsed with serum free Pluricyte® Cardiomyocyte Medium and added drop-wise to the tube containing the cardiomyocytes. […] Then, the supernatant was removed and medium was drop-wisely added to reach the aimed concentration of cells in the suspension (10^4 cells/μl). 2-μl cell suspension per well was placed on the six-well MEA chips in a density of 10^4 cells/μl. After 3-h incubation (37 °C, 5% CO2), 200 μl of medium was filled into each well of the MEA chips which were subsequently incubated at 37 °C with 5% CO2 and refreshed with medium every 2 days.
At 7–8 days after seeding, MEA chips were placed on the headstage of a MEA2100-system (MCS GmbH) integrated with the chamber providing a stable atmosphere (37 °C, 5% CO2) to record the extracellular field potential (Fig. 2) of spontaneous beating hiPSC-CM. After an equilibration time of 20 min, half of the medium (100 μl) in each well was replaced by culture medium containing 0.2% (v/v) DMSO to reach a final concentration of 0.1% (v/v) DMSO, which was used as baseline condition. […] At each concentration, the extracellular field potential was recorded for 1 min after 10-min exposure. […] Same test concentrations were chosen for EDDP and EMDP, which enables definition of concentration-dependent curves for EDDP and EMDP that allow potency comparison.
One well of 0.1% (v/v) DMSO on each MEA chip was used as the vehicle control well and run at the same time as the compound exposure wells to correct for time- and DMSO-dependent effects on the field potential. A detailed exposure scheme can be found in Fig. S1. Data were collected using Cardio 2D software (MCS GmbH) with a sample frequency of 10 kHz and a 0.1–3.5-kHz band-pass filter.
Field potential duration (FPD) was defined as duration between the beginning of the sodium spike and the repolarizing peak (Fig. 2). RR-intervals were defined as the duration between two depolarization peaks (Fig. 2). The FPD and RR-interval were measured as the average of at least 30 beats from 1-min recording at each concentration of the test compound.
In this formula, the FPD and RR-interval are expressed in seconds. Data were collected from at least three independent experiments (4–8 wells, 26–38 electrodes), using a new vial of cells (all from the same batch) at each independent experiment. […] The concentrations inducing irregularities in the field potential trace (Fig. S2) were also noted.
The concentration–response curves were plotted with GraphPad Prism 5.0 using the four-parameters logistic fit (GraphPad Software Inc., San Diego, USA). Each data point is presented as the mean value of at least three independent experiments ± standard deviation (SD). Statistical significance of the changes in response of cells exposed to the compound compared to the solvent control was analyzed by one-way ANOVA followed by post Dunnett test. Values of p < 0.05 were regarded as statistically significant (p < 0.05: *, p < 0.01: ** and p < 0.001: ***). Statistical analysis was performed by GraphPad Prism 5.0 (GraphPad Software Inc.).

[1] = In vitro incubations with pooled human liver microsomes; conditions: EDDP as substrate, 1000 µM
Method: The test concentrations were chosen to enable adequate analysis of Michaelis–Menten kinetics. After one-min pre-incubation of this solution at 37 °C, the reactions were initiated by addition of human liver microsomes giving a final concentration of 0.5 mg/ml microsomal protein and incubations were performed in a shaking water bath at 37 °C for 40 min. Control incubations were performed in the absence of NADPH which was replaced with Tris–HCl. The reactions were terminated by addition of 40-µl ice-cold acetonitrile. Samples were kept on ice for at least 20 min and then centrifuged at 18,000g for 5 min at 4 °C to precipitate microsomal proteins.
Vmax and Km were obtained by fitting the data to Eq. (2) in GraphPad Prism 5.0 (GraphPad Software Inc.). Data were collected from three independent experiments and each data point is presented as the mean value ± SD.

[2] = design: method as in Hsu et al. ([2013]); conditions: subjects on methadone maintenance treatment; ref Hsu et al. ([2013]); cited from earlier work
hERG channels = conditions: ref Eap et al. [2007], cited from earlier work
[3] = ref Foster [2001]; cited from earlier work
[4] = cited from earlier work
[5] = RED assay, unbound fraction in pooled human plasma
Method: (§1) Then, 25 µl of post-dialysis samples were collected from the sample chambers and transferred to test sample tubes followed by an addition of 25 µl PBS. Equal volumes of post-dialysis samples collected from the buffer chamber which were then mixed with 25 µl of in vitro medium or human plasma in the buffer sample tubes. Then, both samples were precipitated using 300-µl cold acetonitrile/water (90/10 v/v). The samples were put on ice for 30 min followed by centrifugation for 30 min at 15,000g. Then, supernatants were collected for UPLC–PDA analysis.
(§2) The measurements were performed in triplicate in two independent experiments.

[6] = RED assay, unbound fraction in in vitro hiPSC-CM MEA assay medium; conditions: in vitro hiPSC-CM MEA assay medium (serum-free)
Method: as §1, §2

| Structure (SMILES) | BMC20, prolongation of FPDc (hiPSC-CM; 20% change in FPDc over control, cumulative addition, 10-min exposure) [µM] | unbound BMC20 (hiPSC-CM; BMC20 corrected for unbound fraction in medium) [µM] | concentration at which cessation of beating was observed (hiPSC-CM; human, 10 min) [µM] | concentration from which arrhythmia-like waveforms were induced (hiPSC-CM; tested up to 30 µM) [µM] | cytotoxicity at the test concentrations (hiPSC-CM) | EMDP formation from EDDP [1] | BPr (blood/plasma ratio) [2] | hERG channel block (hERG channels; Katchman et al. [2002]) | recovery of EDDP in feces [3] | free blood Cmax of EDDP ([4]; oral methadone 57.5 mg/day, estimated from reported EDDP data, ref De Vos et al. ([1995])) [µM] | fraction unbound at 5 h, 150 µM [5] | fraction unbound at 5 h, 150 µM [6] | concentration shortening the FPDc by 20% (BMC20 for decreasing FPDc) (hiPSC-CM; cumulative addition, 10-min exposure) [µM] | concentration causing beating arrest in certain wells (hiPSC-CM; in certain wells) [µM] | arrhythmia-type waveforms / FPDc prolongation (hiPSC-CM; test range 0.1-30 µM) | hERG channel inhibition (hERG channels) | in vivo total plasma concentration of EMDP ([4]; after clinical relevant dosing of methadone, ref Alburges et al. [1996]) |
| --- | --- | --- | --- | --- | --- | --- | --- | --- | --- | --- | --- | --- | --- | --- | --- | --- | --- |
| CC=C1N(C)C(C)CC1(c1ccccc1)c1ccccc1 (stereo not drawn) [EDDP, 2-ethylidene-1,5-dimethyl-3,3-diphenylpyrrolidine] | 2.3 | 2.07 | 30 | ≥ 3 | no cytotoxicity was observed | formation of EMDP was neither detectable | 0.87^c | weaker hERG channel blocker compared to methadone | up to 39% | 0.05 | 0.3 ± 0.015 | 0.9 ± 0.072 |  |  |  |  |  |
| CCC1=NC(C)CC1(c1ccccc1)c1ccccc1 (stereo not drawn) [EMDP, 2-ethyl-5-methyl-3,3-diphenylpyrroline] |  |  |  |  | no cytotoxicity was observed |  |  |  |  |  |  |  | 3.8 | 30 | without inducing arrhythmia-type waveforms; also recorded: Neither FPDc prolongation nor arrhythmia-type waveforms were observed | not inhibit hERG channels | less than 0.04 µM |
